Test results published in paper PMC9412875, “^64Cu-DOTHA2-PSMA, a Novel PSMA PET Radiotracer for Prostate Cancer with a Long Imaging Time Window” (Pharmaceuticals, 2022).

Assays:
LNCaP cells = assay: Cellular efflux assay; format: cell-based, human
Experimental: Here, 12-well polylysine-coated Cellbind plates were seeded with 150 × 10^3 LNCaP cells with 1.75 mL of cell media. At 70–100% confluence (3 days of growth), the cell medium was changed and 37 kBq of ^64Cu-DOTHA2-PSMA in 1 mL of cell medium was added to each well of group 1 and 160 kBq to each of group 2.
For efflux assays, after adding ^64Cu-DOTHA2-PSMA, cells were incubated for 60 min for the time points 15 min to 4 h (group 1) and incubated for 4 h for the time points 4 h to 48 h (group 2). After incubation, the medium was removed, cells were washed with 1 mL of cold PBS, 1 mL of cell media was added and, similarly to uptake and internalization, cells were again incubated in nonradioactive media for 0, 15, 30, 45, 60 min, 2 h, 4 h (group 1) and 4 h, 8 h, 24 h, 32 h or 48 h (group 2) (3 wells per time point). After respective incubation times per well, the medium was removed, and cells were washed with 1 mL of cold PBS, then removed from the well with 1 mL of trypsin to measure the residual radioactivity by gamma counter. The results of residual activity were expressed as percentage of the 1 h (Group 1) or 4 h (Group 2) uptake activity (0 min of efflux time-point) as a function of time for 10^6 cells.
All the assays were performed at least 3 times, each with different ^64Cu-DOTHA2-PSMA production and cell passage. Cells were counted in 3 wells for each protocol (uptake, internalization, and efflux) on day 1 and day 3 of each experiment and an average for cells numbers at day 2.

LNCaP tumor = assay: PET imaging of LNCaP tumor-bearing mice; format: in vivo, NRG mice
Experimental: All the experiments were conducted according to a protocol approved by the Animal Ethics Committee of the Université de Sherbrooke and were in accordance with the guidelines of the Canadian Council on Animal Care. All animal manipulations that could cause pain, stress, or that required immobilization were performed under isoflurane anesthesia (2% in 2 L/min oxygen) with a heating pad or bed. When protocols required animal death (e.g., biodistribution) or ethical limits (e.g., tumor size) were reached, euthanasia was performed by CO2 inhalation under isoflurane anesthesia. […] For PET imaging, NRG mice were used (The Jack Laboratory, 7–10 weeks old, and 19–26 g at time of experiment). A total of 200 µL of a 1:1 Matrigel/PBS mixture containing […] LNCaP cells was injected subcutaneously on each shoulder of NRG mice. Experiments were initiated 2 to 4 weeks after inoculation when tumors reached a diameter between 5 and 10 mm.
Dynamic (0–1 h p.i.) and static (4 h, 20 min long and 24 h p.i., 1h long) PET assays were performed in combination with 5 min CT in NRG mice injected with 8 MBq of ^64Cu-DOTHA2-PSMA in 0.3 mL of saline through the tail vein (LabPET 8/-Triumph; Gamma Medica, Northridge, CA, USA). Blocking was achieved by the co-injection of 20 nmol of ^natCu-DOTHA2-PSMA (n = 3 per group). We selected this blocking agent because its pharmacokinetics are similar to ^64Cu-DOTHA2-PSMA. PET images were reconstructed using the three-dimensional maximum likelihood […] method (MLEM-3D) algorithm with 20 iterations and a 60 mm field-of-view (Gamma Medica). The analyses were conducted using AMIDE software 1.0.4. Quantitative image data were reported as %IA per volume (centimeter cube, cc).

SMILES: CN([O-])C(=O)CN1CCN(CC(=O)NCC2CCC(C(=O)NC(Cc3ccc4ccccc4c3)C(=O)NCCCCC(NC(=O)NC(CCC(=O)O)C(=O)O)C(=O)O)CC2)CCN(CC(=O)N(C)[O-])CCN(CC(=O)N(C)O)CC1.[64Cu+2] (centres unmarked) [^64Cu-DOTHA2-PSMA]
- Retained activity normalized to time 0 (LNCaP cells; 1h incubation, efflux time 0.25 h): 100.93%
- Retained activity normalized to time 0 (LNCaP cells; 1h incubation, efflux time 0.50 h): 105.51%
- Retained activity normalized to time 0 (LNCaP cells; 1h incubation, efflux time 0.75 h): 94.38%
- Retained activity normalized to time 0 (LNCaP cells; 1h incubation, efflux time 1 h): 77.52%
- Retained activity normalized to time 0 (LNCaP cells; 1h incubation, efflux time 2 h): 80.95%
- Retained activity normalized to time 0 (LNCaP cells; 1h incubation, efflux time 4 h): 64.04%
- Retained activity normalized to time 0 (LNCaP cells; 4h incubation, efflux time 4 h): 66.23%
- Retained activity normalized to time 0 (LNCaP cells; 4h incubation, efflux time 8 h): 51.88%
- Retained activity normalized to time 0 (LNCaP cells; 4h incubation, efflux time 24 h): 35.10%
- Retained activity normalized to time 0 (LNCaP cells; 4h incubation, efflux time 32 h): 34.27%
- Retained activity normalized to time 0 (LNCaP cells; 4h incubation, efflux time 48 h): 48.61%
- tumor uptake (PET) (LNCaP tumor; 1 h p.i., co-injection of blocking agent (20 nmol natCu-DOTHA2-PSMA)): 4.78 ± 0.96 % IA/cc
- liver uptake (PET, peak) (LNCaP tumor; 4 h p.i.): 26.8 ± 5.3 % IA/cc
- tumor uptake (PET) (LNCaP tumor; 4 h p.i., co-injection of blocking agent (20 nmol natCu-DOTHA2-PSMA)): 7.46 ± 1.07 % IA/cc
- tumor uptake (PET) (LNCaP tumor; 24 h p.i., co-injection of blocking agent (20 nmol natCu-DOTHA2-PSMA)): 8.62 ± 0.74 % IA/cc
- tumor uptake (PET) (LNCaP tumor; LNCaP tumor, NRG mice, 1 h p.i., non-blocked): 14.0 ± 5.0 % IA/cc
- tumor uptake (PET) (LNCaP tumor; LNCaP tumor, NRG mice, 4 h p.i., non-blocked): 23.8 ± 11.5 % IA/cc
- tumor uptake (PET) (LNCaP tumor; LNCaP tumor, NRG mice, 24 h p.i., non-blocked): 18.5 ± 6.6 % IA/cc
- time of highest tumoral uptake (LNCaP tumor; PET, LNCaP tumor): 4 h p.i.
- time of peak kidney uptake, calyxes (LNCaP tumor; dynamic PET): 10 min p.i.
- time of peak kidney uptake, cortex (LNCaP tumor; dynamic PET): 5 min p.i.
- tumor-to-kidney ratios (LNCaP tumor; from 1 h p.i.): greater than 1
- time of peak of urinary clearance (kidney calyxes and cortex signals) (LNCaP tumor; time-activity curves): ≤ 10 min
